In ChEMBL document CHEMBL2202958, “Development of potent macrocyclic inhibitors of genotype 3a HCV NS3/4A protease” (Bioorg Med Chem Lett, 2012):
pIC50, pKi: −log10 of the molar value.

How the values were obtained:
[1] = Inhibition of HCV3a NS3/4A protease; design: species or system Hepatitis C virus subtype 3a
[2] = Inhibition of HCV3a NS3/4A protease by time-resolved fluorescence assay; design: species or system Hepatitis C virus subtype 3a
[3] = Inhibition of HCV1b BK NS3/4A protease expressed in Escherichia coli after 1 hr by time-resolved fluorescence assay; design: species or system Hepatitis C virus (isolate BK)
[4] = Drug level in Sprague-Dawley rat liver at 5 mg/kg, po after 4 hrs; type: ADME, organism-based; design: dose 5 mg/kg, route oral; settings: read-out: Drug uptake
Hepatitis C virus [5] = test: Antiviral activity against HCV1b con1 infected in human Huh-7 cells assessed as inhibition of viral replication after 24 hrs in presence of 10% fetal bovine serum; type: functional, organism-based, Hepacivirus hominis; settings: Con1, Huh-7, 24 h
Hepatitis C virus [6] = test: Antiviral activity against HCV1b con1 infected in human Huh-7 cells assessed as inhibition of viral replication after 24 hrs in presence of 50% normal human serum; type: functional, organism-based, Hepacivirus hominis; settings: Con1, Huh-7, 24 h

## CC[C@@H]1C[C@]1(NC(=O)[C@@H]1C[C@@H]2CN1C(=O)[C@H](C(C)(C)C)NC(=O)OCC(C)(C)CCCCc1cccc3c1CN(C3)C(=O)O2)C(=O)NS(=O)(=O)C1CC1 [VANIPREVIR]
[1]
  pKi: 7.27

## C=C[C@@H]1C[C@]1(NC(=O)[C@@H]1C[C@@H]2CN1C(=O)[C@H](C1CCCCC1)NC(=O)OCC(C)(C)CCCc1ccc3c(c1)c(cc1nccn13)O2)C(=O)NS(=O)(=O)C1CC1
[2]
  pKi: 8.28
[3]
  pKi: 10.10
[4]
  concentration at 4 h: 0.7 µM
Hepatitis C virus [5]
  pIC50: 7.48
Hepatitis C virus [6]
  pIC50: 6.74

## C=C[C@@H]1C[C@]1(NC(=O)[C@@H]1C[C@@H]2CN1C(=O)[C@H](C1CCCCC1)NC(=O)OCC(C)(C)CCCc1cc3c(cc(O)nc3cc1OC)O2)C(=O)NS(=O)(=O)C1CC1
[2]
  pKi: 7.64
[3]
  pKi: 10.15
[4]
  concentration at 4 h: 0.07 µM
Hepatitis C virus [5]
  pIC50: 7.07
Hepatitis C virus [6]
  pIC50: 6.34

## C=C[C@@H]1C[C@]1(NC(=O)[C@@H]1C[C@@H]2CN1C(=O)[C@H](C1CCCC1)NC(=O)OCC(C)(C)CCCc1cc3c(nc4cc(F)ccc4c3cc1OC)O2)C(=O)NS(=O)(=O)C1CC1
[2]
  pKi: 9.05
[3]
  pKi: > 10.70
[4]
  concentration at 4 h: 22 µM
Hepatitis C virus [5]
  pIC50: 8.05
Hepatitis C virus [6]
  pIC50: 7.37

## C=C[C@@H]1C[C@]1(NC(=O)[C@@H]1C[C@@H]2CN1C(=O)[C@H](C1CCCC1)NC(=O)OCC(C)(C)CCCc1cc3c(cc(OCc4csc(C(C)C)n4)nc3cc1OC)O2)C(=O)NS(=O)(=O)C1CC1
[2]
  pKi: 8.70
[3]
  pKi: > 10.70
[4]
  concentration at 4 h: 2.7 µM
Hepatitis C virus [5]
  pIC50: 8.40
Hepatitis C virus [6]
  pIC50: 7.59

## C=C[C@@H]1C[C@]1(NC(=O)[C@@H]1C[C@@H]2CN1C(=O)[C@H](C1CCCCC1)NC(=O)OCC(C)(C)CCCc1cc3c(cc4nccn4c3cc1OC)O2)C(=O)NS(=O)(=O)C1CC1
[2]
  pKi: 8.74
[3]
  pKi: 10.40
[4]
  concentration at 4 h: 0.8 µM
Hepatitis C virus [5]
  pIC50: 7.37
Hepatitis C virus [6]
  pIC50: 6.85

## C=C[C@@H]1C[C@]1(NC(=O)[C@@H]1C[C@@H]2CN1C(=O)[C@H](C1CCCCC1)NC(=O)OCC(C)(C)CCCc1cc3c(cc(-c4ccccc4OC)nc3cc1OC)O2)C(=O)NS(=O)(=O)C1CC1
[2]
  pKi: 7.21
[3]
  pKi: 10.05
[4]
  concentration at 4 h: 6.3 µM
Hepatitis C virus [5]
  pIC50: 8.15
Hepatitis C virus [6]
  pIC50: 7.51

## C=C[C@@H]1C[C@]1(NC(=O)[C@@H]1C[C@@H]2CN1C(=O)[C@H](C1CCCCC1)NC(=O)OCC(C)(C)CCCc1cc3c(cc(-c4cccnc4)nc3cc1OC)O2)C(=O)NS(=O)(=O)C1CC1
[2]
  pKi: 7.26
[4]
  concentration at 4 h: 0.2 µM
Hepatitis C virus [5]
  pIC50: 7.57
Hepatitis C virus [6]
  pIC50: 7.04

## C=C[C@@H]1C[C@]1(NC(=O)[C@@H]1C[C@@H]2CN1C(=O)[C@H](C1CCCC1)NC(=O)OCC(C)(C)CCCc1cc3c(nc4cc(C)ccc4c3cc1OC)O2)C(=O)NS(=O)(=O)C1CC1
[2]
  pKi: 8.72
[3]
  pKi: > 10.70
[4]
  concentration at 4 h: 16 µM
Hepatitis C virus [5]
  pIC50: 8.40
Hepatitis C virus [6]
  pIC50: 7.82

## C=C[C@@H]1C[C@]1(NC(=O)[C@@H]1C[C@@H]2CN1C(=O)[C@H](C1CCCC1)NC(=O)OCC(C)(C)CCCc1cc3c(cc(OCc4ncco4)nc3cc1OC)O2)C(=O)NS(=O)(=O)C1CC1
[2]
  pKi: 8.96
[3]
  pKi: > 10.70
[4]
  concentration at 4 h: 2.6 µM
Hepatitis C virus [5]
  pIC50: 8.40
Hepatitis C virus [6]
  pIC50: 7.80

## C=C[C@@H]1C[C@]1(NC(=O)[C@@H]1C[C@@H]2CN1C(=O)[C@H](C1CCCCC1)NC(=O)OCC(C)(C)CCCc1cc3c(cc(N4CCCCC4)nc3cc1OC)O2)C(=O)NS(=O)(=O)C1CC1
[2]
  pKi: 8.12
[3]
  pKi: 10.15
[4]
  concentration at 4 h: 0.1 µM
Hepatitis C virus [5]
  pIC50: 8.30
Hepatitis C virus [6]
  pIC50: 7.59

## C=C[C@@H]1C[C@]1(NC(=O)[C@@H]1C[C@@H]2CN1C(=O)[C@H](C1CCCC1)NC(=O)OCC(C)(C)CCCc1cc3c(nc4ccccc4c3cc1OC)O2)C(=O)NS(=O)(=O)C1CC1
[2]
  pKi: 8.77
[3]
  pKi: > 10.70
[4]
  concentration at 4 h: 27 µM
Hepatitis C virus [5]
  pIC50: 8.52
Hepatitis C virus [6]
  pIC50: 7.54

## C=C[C@@H]1C[C@]1(NC(=O)[C@@H]1C[C@@H]2CN1C(=O)[C@H](C1CCCCC1)NC(=O)OCC(C)(C)CCCc1cc3c(cc(NC)nc3cc1OC)O2)C(=O)NS(=O)(=O)C1CC1
[2]
  pKi: 8.27
[3]
  pKi: 10.05
[4]
  concentration at 4 h: < 0.005 µM
Hepatitis C virus [5]
  pIC50: 8.80
Hepatitis C virus [6]
  pIC50: 7.05

## C=C[C@@H]1C[C@]1(NC(=O)[C@@H]1C[C@@H]2CN1C(=O)[C@H](C1CCCC1)NC(=O)OCC(C)(C)CCCc1cc3c(nc4ccc(Cl)cc4c3cc1OC)O2)C(=O)NS(=O)(=O)C1CC1
[2]
  pKi: 7.44
[3]
  pKi: > 10.70
Hepatitis C virus [5]
  pIC50: 8.15
Hepatitis C virus [6]
  pIC50: 7.51

## C=C[C@@H]1C[C@]1(NC(=O)[C@@H]1C[C@@H]2CN1C(=O)[C@H](C1CCCCC1)NC(=O)OCC(C)(C)CCCc1cc3c(cc(-c4cccc(OC)c4)nc3cc1OC)O2)C(=O)NS(=O)(=O)C1CC1
[2]
  pKi: 7.11
[3]
  pKi: 10.15
[4]
  concentration at 4 h: 6.7 µM
Hepatitis C virus [5]
  pIC50: 8.22
Hepatitis C virus [6]
  pIC50: 7.72

## C=C[C@@H]1C[C@]1(NC(=O)[C@@H]1C[C@@H]2CN1C(=O)[C@H](C1CCCC1)NC(=O)OCC(C)(C)CCCc1cc3c(nc4cc(C#N)ccc4c3cc1OC)O2)C(=O)NS(=O)(=O)C1CC1
[2]
  pKi: 9.10
[3]
  pKi: > 10.70
[4]
  concentration at 4 h: 7.5 µM
Hepatitis C virus [5]
  pIC50: 8.40
Hepatitis C virus [6]
  pIC50: 7.89

## C=C[C@@H]1C[C@]1(NC(=O)[C@@H]1C[C@@H]2CN1C(=O)[C@H](C1CCCC1)NC(=O)OCC(C)(C)CCCc1cc3c(cc(OCc4csc(C)n4)nc3cc1OC)O2)C(=O)NS(=O)(=O)C1CC1
[2]
  pKi: 8.80
[3]
  pKi: 10.05
[4]
  concentration at 4 h: 0.8 µM
Hepatitis C virus [5]
  pIC50: 8.30
Hepatitis C virus [6]
  pIC50: 7.59

## C=C[C@@H]1C[C@]1(NC(=O)[C@@H]1C[C@@H]2CN1C(=O)[C@H](C1CCCCC1)NC(=O)OCC(C)(C)CCCc1cc3c(cc(-c4ccccc4)nc3cc1OC)O2)C(=O)NS(=O)(=O)C1CC1
[2]
  pKi: 7.68
[3]
  pKi: 10.30
[4]
  concentration at 4 h: 9.9 µM
Hepatitis C virus [5]
  pIC50: 8.44
Hepatitis C virus [6]
  pIC50: 7.55

## C=C[C@@H]1C[C@]1(NC(=O)[C@@H]1C[C@@H]2CN1C(=O)[C@H](C1CCCCC1)NC(=O)OCC(C)(C)CCCc1cc3c(cc(OCC)nc3cc1OC)O2)C(=O)NS(=O)(=O)C1CC1
[2]
  pKi: 8.12
[3]
  pKi: 10.05
[4]
  concentration at 4 h: 40 µM
Hepatitis C virus [5]
  pIC50: 8.22
Hepatitis C virus [6]
  pIC50: 7.37

## C=C[C@@H]1C[C@]1(NC(=O)[C@@H]1C[C@@H]2CN1C(=O)[C@H](C1CCCCC1)NC(=O)OCC(C)(C)CCCc1cc3c(cc(-c4ccc(OC)cc4)nc3cc1OC)O2)C(=O)NS(=O)(=O)C1CC1
[2]
  pKi: 7.74
[3]
  pKi: 10.15
[4]
  concentration at 4 h: 6.1 µM
Hepatitis C virus [5]
  pIC50: 8.52
Hepatitis C virus [6]
  pIC50: 7.60

## C=C[C@@H]1C[C@]1(NC(=O)[C@@H]1C[C@@H]2CN1C(=O)[C@H](C1CCCCC1)NC(=O)OCC(C)(C)CCCc1cc3c(cc(OC)nc3cc1OC)O2)C(=O)NS(=O)(=O)C1CC1
[2]
  pKi: 8.39
[3]
  pKi: 10.40
[4]
  concentration at 4 h: 5.4 µM
Hepatitis C virus [5]
  pIC50: 8.40
Hepatitis C virus [6]
  pIC50: 7.72

## C=C[C@@H]1C[C@]1(NC(=O)[C@@H]1C[C@@H]2CN1C(=O)[C@H](C1CCCCC1)NC(=O)OCC(C)(C)CCCc1cc3c(cc(OC4CCCC4)nc3cc1OC)O2)C(=O)NS(=O)(=O)C1CC1
[2]
  pKi: 7.82
[3]
  pKi: 10.30
[4]
  concentration at 4 h: 4.6 µM
Hepatitis C virus [5]
  pIC50: 8.30
Hepatitis C virus [6]
  pIC50: 7.47

## C=C[C@@H]1C[C@]1(NC(=O)[C@@H]1C[C@@H]2CN1C(=O)[C@H](C1CCCCC1)NC(=O)OCC(C)(C)CCCc1cc3c(cc(NC4CCCCC4)nc3cc1OC)O2)C(=O)NS(=O)(=O)C1CC1
[2]
  pKi: 8.12
[3]
  pKi: 9.92
Hepatitis C virus [5]
  pIC50: 7.41
Hepatitis C virus [6]
  pIC50: 5.92

## C=C[C@@H]1C[C@]1(NC(=O)[C@@H]1C[C@@H]2CN1C(=O)[C@H](C1CCCC1)NC(=O)OCC(C)(C)CCCc1cc3c(cc(OCc4ncn(C)n4)nc3cc1OC)O2)C(=O)NS(=O)(=O)C1CC1
[2]
  pKi: 9.00
[3]
  pKi: 10.52
[4]
  concentration at 4 h: 0.03 µM
Hepatitis C virus [5]
  pIC50: 7.44
Hepatitis C virus [6]
  pIC50: 6.77

## C=C[C@@H]1C[C@]1(NC(=O)[C@@H]1C[C@@H]2CN1C(=O)[C@H](C1CCCCC1)NC(=O)OCC(C)(C)CCCc1cc3c(cc(-c4ccc(F)cc4)nc3cc1OC)O2)C(=O)NS(=O)(=O)C1CC1
[2]
  pKi: 7.54
[3]
  pKi: 9.74
Hepatitis C virus [5]
  pIC50: 7.96
Hepatitis C virus [6]
  pIC50: 6.96
